Data as given in patent EP2915814A2, “Crystalline salts of sitagliptin” (priority 2008, dated 2010).
Where a name gives a salt, the structure may show the parent alone. Marks after values point to notes of the source that are not given here.

Legend:
[1] = Hygroscopicity studies (water content after storage at 43 %, 75 % and 93 % relative humidity); type: physicochemical; details: for Initial water content: initial sample; for change during the hygroscopicity studies: 43 %, 75 % and 93 % relative humidity, confirmed by DSC of samples kept at 93 % relative humidity for 2 weeks; for Hygroscopicity 2 weeks 43 % rh: 2 weeks at 43 % rh; for Hygroscopicity 2 weeks 43 % rh / Hygroscopicity 2 weeks 75 % rh / Hygroscopicity 2 weeks 93 % rh: % Equilibrium moisture content, ss = semi solid state of sample, β = solid first changed into liquid and solidified again; for Hygroscopicity 2 weeks 75 % rh: 2 weeks at 75 % rh; for Hygroscopicity 2 weeks 93 % rh: 2 weeks at 93 % rh
Source text: The salts of the present invention and the free base were studied under three different humidity conditions (43 % relative humidity, 75 % relative humidity, and 93 % relative humidity).

[2] = Stability studies (storage at 60 °C in closed bottles or at 40 °C / 75 % RH in an open bottle; related substances by HPLC); details: for Related Substances 2 W 40°C/75 % RH open / Related Substances 2 W 60°C closed: 2 weeks, 20160 min; for Related Substances 4 w 40°C/75 % RH closed / Related Substances 4 w 40°C/75 % RH open / Related Substances 4 w 60°C Closed bottle: 4 weeks, 40320 min; for Related Substances 12 weeks 40°C/75 % RH closed bottle / Related Substances 12 weeks 40°C/75 % RH open bottle: 120960 min; for Initial Related Substances: before storage
[3] = closed bottle, two weeks at 60 °C
[4] = closed bottle, four weeks at 60 °C
[5] = open bottle, twelve weeks at 40 °C and 75 % RH

| Compound | Related Substances 2 W 40°C/75 % RH open [2] [%] | Related Substances 2 W 60°C closed [2] [%] | Related Substances 4 w 40°C/75 % RH closed [2] [%] | Related Substances 4 w 40°C/75 % RH open [2] [%] | Related Substances 4 w 60°C Closed bottle ([2]; closed bottle) [%] | Related Substances 12 weeks 40°C/75 % RH closed bottle ([2]; closed bottle) [%] | Related Substances 12 weeks 40°C/75 % RH open bottle ([2]; open bottle) [%] | Initial Related Substances [2] [%] | stability (degradation, related substances by HPLC) [2, 3] | Hygroscopicity 2 weeks 43 % rh [1] | Hygroscopicity 2 weeks 75 % rh [1] | Hygroscopicity 2 weeks 93 % rh [1] | Initial water content ([1]; before storage) [%] | also measured |
| --- | --- | --- | --- | --- | --- | --- | --- | --- | --- | --- | --- | --- | --- | --- |
| N[C@@H](CC(=O)N1CCn2c(nnc2C(F)(F)F)C1)Cc1cc(F)c(F)cc1F [E: Sulfate I, Sitagliptin Sulfate Form I] | 0.10 | 0.08 | 0.02 | 0.06 | 0.02 | 0.03 | 0.08 | 0.08 | – | – | – | – | – | Hygroscopicity (water content) ([1]; 2 weeks 43 % rh): 1.12%; Hygroscopicity (water content) ([1]; 2 weeks 75 % rh): 1.0%; Hygroscopicity (water content) ([1]; 2 weeks 93 % rh): 2.81%; Initial water content ([1]; before humidity storage): 0.69%; stability (degradation, related substances by HPLC) ([2]; closed bottle, four weeks at 60 °C, listed as sulfate (solvated)): stable; stability (degradation, related substances by HPLC) ([2]; closed bottle, two weeks at 60 °C, listed as sulfate (solvated)): stable |
| N[C@@H](CC(=O)N1CCn2c(nnc2C(F)(F)F)C1)Cc1cc(F)c(F)cc1F [maleate (solvated), Sitagliptin Maleate Form I] | – | – | – | – | – | – | – | – | degradation was observed | – | – | – | – | – |
| N[C@@H](CC(=O)N1CCn2c(nnc2C(F)(F)F)C1)Cc1cc(F)c(F)cc1F [maleate, sitagliptin maleate] | – | – | – | – | – | – | – | – | – | – | – | – | – | change during the hygroscopicity studies [1]: did not show much change; stability (degradation, related substances by HPLC) [2, 4]: showed a degradation |
| N[C@@H](CC(=O)N1CCn2c(nnc2C(F)(F)F)C1)Cc1cc(F)c(F)cc1F [maleate (non solvated), Sitagliptin Maleate Form II] | – | – | – | – | – | – | – | – | stable | – | – | – | – | – |
| N[C@@H](CC(=O)N1CCn2c(nnc2C(F)(F)F)C1)Cc1cc(F)c(F)cc1F [K: Mesylate I] | – | – | – | – | – | – | – | – | – | 1.13% | 0.49% | 0.96% | 0.68 | – |
| N[C@@H](CC(=O)N1CCn2c(nnc2C(F)(F)F)C1)Cc1cc(F)c(F)cc1F [Base, 7-[(3R)-3-amino-1-oxo-4-(2,4,5-trifluorophenyl)butyl)-5,6,7,8-tetrahydro-3-(trifluoromethyl)-1,2,4-triazolo[4,3-a]pyrazine, reference compound] | 0.27 | 0.37 | 0.46 | 0.39 | 0.46 | 0.52 | 0.39 | 0.36 | – | – | – | – | – | Hygroscopicity (water content) ([1]; 2 weeks 43 % rh): 0.19%; Hygroscopicity (water content) ([1]; 2 weeks 75 % rh): 0.22%; Hygroscopicity (water content) ([1]; 2 weeks 93 % rh): 0.3%; change during the hygroscopicity studies ([1]; listed as free base): did not show much change; Initial water content ([1]; before humidity storage): 0.19%; stability (degradation, related substances by HPLC) ([2]; closed bottle, four weeks at 60 °C, listed as free base): stable; stability (degradation, related substances by HPLC) ([2]; closed bottle, two weeks at 60 °C, listed as free base): stable; stability (degradation, related substances by HPLC) ([2]; open bottle, twelve weeks at 40 °C and 75 % RH, listed as free base): stable |
| N[C@@H](CC(=O)N1CCn2c(nnc2C(F)(F)F)C1)Cc1cc(F)c(F)cc1F [H: Glycolate] | 0.24 | 1.81 | 0.49 | 0.61 | 4.06 | 1.09 | 0.99 | 0.05 | – | 2.24 ss % | β 4.81% | 24.85** % | 1.039 | – |
| N[C@@H](CC(=O)N1CCn2c(nnc2C(F)(F)F)C1)Cc1cc(F)c(F)cc1F [phosphate monohydrate, sitagliptin dihydrogenphosphate, reference compound] | – | – | – | – | – | – | – | – | stable | – | – | – | – | change during the hygroscopicity studies [1]: did not show much change |
| N[C@@H](CC(=O)N1CCn2c(nnc2C(F)(F)F)C1)Cc1cc(F)c(F)cc1F [Q: HCl II] | 0.36 | 0.23 | 0.30 | 0.53 | 0.30 | 0.34 | 0.44 | 0.20 | – | – | – | – | – | – |
| N[C@@H](CC(=O)N1CCn2c(nnc2C(F)(F)F)C1)Cc1cc(F)c(F)cc1F [C: Lactate, Sitagliptin Lactate] | 0.34 | 0.43 | 0.28 | 0.33 | 0.49 | 0.56 | 0.59 | 0.16 | degradation was observed | – | – | – | – | Hygroscopicity (water content) ([1]; 2 weeks 43 % rh): 0.54%; Hygroscopicity (water content) ([1]; 2 weeks 75 % rh): 0.5%; Hygroscopicity (water content) ([1]; 2 weeks 93 % rh): 28.77 * %; Initial water content ([1]; before humidity storage): 0.51%; stability (degradation, related substances by HPLC) [2, 4]: showed a degradation; stability (degradation, related substances by HPLC) [2, 5]: shows degradation |
| N[C@@H](CC(=O)N1CCn2c(nnc2C(F)(F)F)C1)Cc1cc(F)c(F)cc1F [N: Mesylate II] | 0.16 | 0.16 | 0.08 | 0.08 | 0.12 | 0.07 | 0.11 | 0.11 | – | 2.89% | 3.37% | 4.04% | 2.08 | – |
| N[C@@H](CC(=O)N1CCn2c(nnc2C(F)(F)F)C1)Cc1cc(F)c(F)cc1F [Q : HCl II] | – | – | – | – | – | – | – | – | – | 0.32% | 0.44% | 0.83% | 0.27 | – |
| N[C@@H](CC(=O)N1CCn2c(nnc2C(F)(F)F)C1)Cc1cc(F)c(F)cc1F [A: Phosphate, Sitagliptin Phosphate] | 0.21 | 0.50 | 0.31 | 0.16 | 0.38 | 0.57 | 0.37 | 0.39 | stable | – | – | – | – | Hygroscopicity (water content) ([1]; 2 weeks 43 % rh): 0.41%; Hygroscopicity (water content) ([1]; 2 weeks 75 % rh): 0.48%; Hygroscopicity (water content) ([1]; 2 weeks 93 % rh): 0.82%; change during the hygroscopicity studies [1]: did not show much change; Initial water content ([1]; before humidity storage): 0.46%; stability (degradation, related substances by HPLC) [2, 4]: stable; stability (degradation, related substances by HPLC) [2, 5]: stable |
| N[C@@H](CC(=O)N1CCn2c(nnc2C(F)(F)F)C1)Cc1cc(F)c(F)cc1F [M: Phosphate H2O] | 0.10 | 0.12 | 0.08 | 0.09 | 0.06 | 0.09 | 0.12 | 0.08 | – | – | – | – | – | – |
| N[C@@H](CC(=O)N1CCn2c(nnc2C(F)(F)F)C1)Cc1cc(F)c(F)cc1F [J: Mesylate II] | – | – | – | – | – | – | – | – | – | 2.58% | 2.94% | 3.23% | 1.47 | – |
